Data taken from publication PMC5218480 (PLoS ONE, 2017).

Test system: MV-4-11 cells
Assay: Gene expression microarray analysis (Affymetrix PrimeView) and GSEA
Type: cell-based, human
Design: RFU PODN (11730768_x_at) / Fold change /veh PODN (11730768_x_at) / RFU LINC00158 (11744669_a_at) / Fold change /veh LINC00158 (11744669_a_at) / RFU DUSP10 (11751237_a_at) / Fold change /veh DUSP10 (11751237_a_at) / RFU ID3 (11757404_x_at) / Fold change /veh ID3 (11757404_x_at) / RFU PLEKHG5 (11737974_s_at) / Fold change /veh PLEKHG5 (11737974_s_at) / RFU LRRC4B (11730491_at) / Fold change /veh LRRC4B (11730491_at) / RFU GIMAP4 (11747438_a_at) / Fold change /veh GIMAP4 (11747438_a_at) / RFU KRT8 (11758183_x_at) / Fold change /veh KRT8 (11758183_x_at) / RFU CNN1 (11734310_a_at) / Fold change /veh CNN1 (11734310_a_at) / RFU VPS37D (11726825_at) / Fold change /veh VPS37D (11726825_at) / RFU C10orf10 (11716522_x_at) / Fold change /veh C10orf10 (11716522_x_at) / RFU KIR2DL2 /// KIR2DL4 /// KIR2DL5A /// KIR2DL5B /// KIR2DS1 /// KIR2DS2 /// KIR2DS3 /// KIR2DS4 /// KIR3DL3 /// KIR3DL3 /// KIR3DS1 (11738374_at) / Fold change /veh KIR2DL2 /// KIR2DL4 /// KIR2DL5A /// KIR2DL5B /// KIR2DS1 /// KIR2DS2 /// KIR2DS3 /// KIR2DS4 /// KIR3DL3 /// KIR3DL3 /// KIR3DS1 (11738374_at) / RFU C1QL1 (11718748_at) / Fold change /veh C1QL1 (11718748_at) / RFU TMPRSS4 (11747572_a_at) / Fold change /veh TMPRSS4 (11747572_a_at) / RFU HAMP (11756126_x_at) / Fold change /veh HAMP (11756126_x_at) / RFU RNFT2 (11725882_a_at) / Fold change /veh RNFT2 (11725882_a_at) / RFU NR4A2 (11747474_a_at) / Fold change /veh NR4A2 (11747474_a_at) / RFU ABCC12 (11746883_a_at) / Fold change /veh ABCC12 (11746883_a_at) / RFU TMEM136 (11760407_x_at) / Fold change /veh TMEM136 (11760407_x_at) / RFU CLDN22 /// WWC2 (11732394_at) / Fold change /veh CLDN22 /// WWC2 (11732394_at) / RFU HLA-DPB1 (11760878_x_at) / Fold change /veh HLA-DPB1 (11760878_x_at) / RFU SPINT1 (11716480_a_at) / Fold change /veh SPINT1 (11716480_a_at) / RFU GAP43 (11754022_s_at) / Fold change /veh GAP43 (11754022_s_at) / RFU A4GNT (11735810_at) / Fold change /veh A4GNT (11735810_at) / RFU PRB3 (11715151_x_at) / Fold change /veh PRB3 (11715151_x_at) / RFU TUBB4B (11761932_at) / Fold change /veh TUBB4B (11761932_at) / RFU CAPN14 (11732068_a_at) / Fold change /veh CAPN14 (11732068_a_at) / RFU TMCC2 (11721928_a_at) / Fold change /veh TMCC2 (11721928_a_at) / RFU IRGQ (11745062_a_at) / Fold change /veh IRGQ (11745062_a_at) / RFU FAM174B (11720279_a_at) / Fold change /veh FAM174B (11720279_a_at) / RFU TMPRSS4 (11748680_a_at) / Fold change /veh TMPRSS4 (11748680_a_at) / RFU FAM212B (11763350_a_at) / Fold change /veh FAM212B (11763350_a_at) / RFU PLEKHG5 (11743358_a_at) / Fold change /veh PLEKHG5 (11743358_a_at) / RFU ZSCAN30 (11745921_a_at) / Fold change /veh ZSCAN30 (11745921_a_at) / RFU CMKLR1 (11741424_a_at) / Fold change /veh CMKLR1 (11741424_a_at) / RFU LOC101060620 /// MAPK8IP1 (11723275_at) / Fold change /veh LOC101060620 /// MAPK8IP1 (11723275_at) / RFU SPTSSB (11747773_x_at) / Fold change /veh SPTSSB (11747773_x_at) / RFU PRSS12 (11739890_at) / Fold change /veh PRSS12 (11739890_at) / RFU BIN1 (11741810_x_at) / Fold change /veh BIN1 (11741810_x_at) / RFU WNT11 (11732464_a_at) / Fold change /veh WNT11 (11732464_a_at) / RFU C10orf10 (11716521_a_at) / Fold change /veh C10orf10 (11716521_a_at) / RFU C5orf56 (11738089_at) / Fold change /veh C5orf56 (11738089_at) / RFU CYB561 (11721691_x_at) / Fold change /veh CYB561 (11721691_x_at) / RFU ANKRD19P (11752326_a_at) / Fold change /veh ANKRD19P (11752326_a_at) / RFU OR2T12 /// OR2T33 /// OR2T8 (11738714_s_at) / Fold change /veh OR2T12 /// OR2T33 /// OR2T8 (11738714_s_at) / RFU VCAN (11748164_a_at) / Fold change /veh VCAN (11748164_a_at) / RFU JSRP1 (11732532_at) / Fold change /veh JSRP1 (11732532_at) / RFU KRTAP10-11 (11738290_x_at) / Fold change /veh KRTAP10-11 (11738290_x_at) / RFU MYO3A (11730013_a_at) / Fold change /veh MYO3A (11730013_a_at) / RFU EBF3 (11725865_a_at) / Fold change /veh EBF3 (11725865_a_at) / RFU CAMK2N1 (11719241_x_at) / Fold change /veh CAMK2N1 (11719241_x_at) / RFU C5orf56 (11738088_a_at) / Fold change /veh C5orf56 (11738088_a_at) / RFU OLFML3 (11715873_a_at) / Fold change /veh OLFML3 (11715873_a_at) / RFU LOC100653217 /// NTM (11731650_a_at) / Fold change /veh LOC100653217 /// NTM (11731650_a_at) / RFU MAPK11 (11762145_a_at) / Fold change /veh MAPK11 (11762145_a_at) / RFU FIZ1 (11724087_x_at) / Fold change /veh FIZ1 (11724087_x_at) / RFU OASL (11726364_x_at) / Fold change /veh OASL (11726364_x_at) / RFU SOX15 (11748057_x_at) / Fold change /veh SOX15 (11748057_x_at) / RFU CD79A (11719716_a_at) / Fold change /veh CD79A (11719716_a_at) / RFU HIST1H1D (11736915_at) / Fold change /veh HIST1H1D (11736915_at) / RFU CASKIN2 (11723855_a_at) / Fold change /veh CASKIN2 (11723855_a_at) / RFU LOC730098 (11760151_x_at) / Fold change /veh LOC730098 (11760151_x_at) / RFU OR4N2 (11742367_at) / Fold change /veh OR4N2 (11742367_at) / RFU PRRT2 (11749266_a_at) / Fold change /veh PRRT2 (11749266_a_at) / RFU SNX32 (11753110_a_at) / Fold change /veh SNX32 (11753110_a_at) / RFU CDHR5 (11726645_a_at) / Fold change /veh CDHR5 (11726645_a_at) / RFU RCAN1 (11760418_a_at) / Fold change /veh RCAN1 (11760418_a_at) / RFU FAM167A (11723789_a_at) / Fold change /veh FAM167A (11723789_a_at) / RFU FAM26E (11764081_at) / Fold change /veh FAM26E (11764081_at) / RFU ISYNA1 (11749810_s_at) / Fold change /veh ISYNA1 (11749810_s_at) / RFU ACY1 (11761880_at) / Fold change /veh ACY1 (11761880_at) / RFU 11764098_at / Fold change /veh 11764098_at / RFU SAMD14 (11745864_x_at) / Fold change /veh SAMD14 (11745864_x_at) / RFU NPB (11741838_a_at) / Fold change /veh NPB (11741838_a_at) / RFU TMPRSS6 (11731388_a_at) / Fold change /veh TMPRSS6 (11731388_a_at) / RFU KRTAP10-2 (11738614_at) / Fold change /veh KRTAP10-2 (11738614_at) / RFU ARHGAP8 /// PRR5-ARHGAP8 (11727945_x_at) / Fold change /veh ARHGAP8 /// PRR5-ARHGAP8 (11727945_x_at) / RFU KRTAP5-7 /// NADSYN1 (11734609_at) / Fold change /veh KRTAP5-7 /// NADSYN1 (11734609_at) / RFU RASL12 (11751679_a_at) / Fold change /veh RASL12 (11751679_a_at) / RFU CDKN2B (11736163_a_at) / Fold change /veh CDKN2B (11736163_a_at) / RFU PRF1 (11729649_at) / Fold change /veh PRF1 (11729649_at) / RFU, ZNF638 /// ZNF638-IT1 / Fold change vs veh, ZNF638 /// ZNF638-IT1 / RFU, PANK3 / Fold change vs veh, PANK3 / RFU, SH3YL1 / Fold change vs veh, SH3YL1 / RFU, ZEB2 / Fold change vs veh, ZEB2 / RFU, NRIP1 / Fold change vs veh, NRIP1 / RFU, PTTG1IP / Fold change vs veh, PTTG1IP / RFU, CAPN2 / Fold change vs veh, CAPN2 / RFU, MED14 / Fold change vs veh, MED14 / RFU, SNORA58 / Fold change vs veh, SNORA58 / RFU, C1orf63 / Fold change vs veh, C1orf63 / RFU, LRRFIP1 / Fold change vs veh, LRRFIP1 / RFU, NDUFAF7 / Fold change vs veh, NDUFAF7 / RFU, SLC12A2 / Fold change vs veh, SLC12A2 / RFU, IBTK / Fold change vs veh, IBTK / RFU, ESF1 / Fold change vs veh, ESF1 / Fold change vs veh, TMEM50B / RFU, TAOK1 / Fold change vs veh, TAOK1 / RFU, ACBD3 / Fold change vs veh, ACBD3 / RFU, TMA16 / Fold change vs veh, TMA16 / RFU, RWDD3 / Fold change vs veh, RWDD3 / RFU, BCAT1 / Fold change vs veh, BCAT1 / RFU, EDEM3 / Fold change vs veh, EDEM3 / RFU, TMEM33 / Fold change vs veh, TMEM33 / RFU, WDR75 / Fold change vs veh, WDR75 / RFU, AHCTF1 / Fold change vs veh, AHCTF1 / RFU, TFRC / Fold change vs veh, TFRC / RFU, ZDHHC17 / Fold change vs veh, ZDHHC17 / RFU, NOM1 / Fold change vs veh, NOM1 / RFU, ARL8B / Fold change vs veh, ARL8B / RFU, ZBTB11 / Fold change vs veh, ZBTB11 / RFU, TAMM41 / Fold change vs veh, TAMM41 / RFU, KIAA1704 /// LOC100996395 / Fold change vs veh, KIAA1704 /// LOC100996395 / RFU, ING1 / Fold change vs veh, ING1 / RFU, TRMT61B / Fold change vs veh, TRMT61B / RFU, FUBP3 / Fold change vs veh, FUBP3 / RFU, TP53 / Fold change vs veh, TP53 / RFU, TNKS2 / Fold change vs veh, TNKS2 / RFU, ZFP14 / Fold change vs veh, ZFP14 / RFU, ACTR2 / Fold change vs veh, ACTR2 / RFU, PPP3R1 / Fold change vs veh, PPP3R1 / RFU, PIK3R1 / Fold change vs veh, PIK3R1 / RFU, HNRNPA1 / Fold change vs veh, HNRNPA1 / RFU, RNF170 / Fold change vs veh, RNF170 / RFU, ZNF28 / Fold change vs veh, ZNF28 / RFU, RNGTT / Fold change vs veh, RNGTT / RFU, OGT / Fold change vs veh, OGT / RFU, BRD1 / Fold change vs veh, BRD1 / RFU, MARS / Fold change vs veh, MARS / RFU, ZNF655 / Fold change vs veh, ZNF655 / RFU, FAHD1 / Fold change vs veh, FAHD1 / RFU, BDP1 / Fold change vs veh, BDP1 / RFU, LRRCC1 / Fold change vs veh, LRRCC1 / RFU, ARID1A / Fold change vs veh, ARID1A / RFU, ZNF146 / Fold change vs veh, ZNF146 / RFU, ZNF330 / Fold change vs veh, ZNF330 / RFU, GPN3 / Fold change vs veh, GPN3 / RFU, C9orf123 / Fold change vs veh, C9orf123 / RFU, N4BP2L2 / Fold change vs veh, N4BP2L2 / RFU, ARFIP1 / Fold change vs veh, ARFIP1 / RFU, FAM179B / Fold change vs veh, FAM179B / RFU, BCL10 / Fold change vs veh, BCL10 / RFU, UHRF1BP1L / Fold change vs veh, UHRF1BP1L / RFU, BET1 / Fold change vs veh, BET1 / RFU, CNOT2 / Fold change vs veh, CNOT2 / RFU, ZNF268 / Fold change vs veh, ZNF268 / Fold change vs veh, ZNF507 / RFU, DGCR2 / Fold change vs veh, DGCR2 / RFU, WDSUB1 / Fold change vs veh, WDSUB1 / Fold change vs veh, HSP90B1 /// MIR3652 / RFU, ADSS / Fold change vs veh, ADSS / RFU, GK / Fold change vs veh, GK / RFU, ZNF148 / Fold change vs veh, ZNF148 / RFU, TAF9 / Fold change vs veh, TAF9 / RFU, SLC1A5 / Fold change vs veh, SLC1A5 / RFU, SLMO2 / Fold change vs veh, SLMO2 / RFU, ABCC4 / Fold change vs veh, ABCC4 / RFU, LOC101060439 /// RAP1B / Fold change vs veh, LOC101060439 /// RAP1B / RFU, RFX7 / Fold change vs veh, RFX7 / RFU, GTPBP10 / Fold change vs veh, GTPBP10 / RFU, CNEP1R1 / Fold change vs veh, CNEP1R1 / RFU, BIVM-ERCC5 /// ERCC5 / Fold change vs veh, BIVM-ERCC5 /// ERCC5 / RFU, ILF3 / Fold change vs veh, ILF3 / RFU 11762660_at / Fold change /veh 11762660_at / RFU VCAN (11757783_s_at) / Fold change /veh VCAN (11757783_s_at) / RFU DDX43 (11728927_at) / Fold change /veh DDX43 (11728927_at) / RFU KRT8 (11758188_x_at) / Fold change /veh KRT8 (11758188_x_at) / RFU NKD1 (11759106_at) / Fold change /veh NKD1 (11759106_at) / RFU SRD5A1 (11742802_a_at) / Fold change /veh SRD5A1 (11742802_a_at) / RFU TPSAB1 /// TPSB2 (11721975_s_at) / Fold change /veh TPSAB1 /// TPSB2 (11721975_s_at) / RFU GSTM3 (11746129_a_at) / Fold change /veh GSTM3 (11746129_a_at) / RFU IL23R (11737362_x_at) / Fold change /veh IL23R (11737362_x_at) / RFU TMEM51 (11727254_a_at) / Fold change /veh TMEM51 (11727254_a_at) / RFU PIWIL2 (11732686_x_at) / Fold change /veh PIWIL2 (11732686_x_at) / RFU ORM1 (11744905_x_at) / Fold change /veh ORM1 (11744905_x_at) / RFU CCDC152 (11743942_at) / Fold change /veh CCDC152 (11743942_at) / RFU ECM1 (11717891_a_at) / Fold change /veh ECM1 (11717891_a_at) / RFU IL23R (11748794_a_at) / Fold change /veh IL23R (11748794_a_at) / RFU TNFAIP8L3 (11732012_x_at) / Fold change /veh TNFAIP8L3 (11732012_x_at) / RFU MBOAT4 (11741988_at) / Fold change /veh MBOAT4 (11741988_at) / RFU 11764193_at / Fold change /veh 11764193_at / RFU TMEM53 (11763286_at) / Fold change /veh TMEM53 (11763286_at) / RFU MAGEB2 (11727129_at) / Fold change /veh MAGEB2 (11727129_at) / RFU TMEM200A (11744735_a_at) / Fold change /veh TMEM200A (11744735_a_at) / RFU CCDC152 (11751479_a_at) / Fold change /veh CCDC152 (11751479_a_at) / RFU FAM211A (11726209_a_at) / Fold change /veh FAM211A (11726209_a_at) / RFU RGS16 (11746705_a_at) / Fold change /veh RGS16 (11746705_a_at) / RFU VCAN (11755009_s_at) / Fold change /veh VCAN (11755009_s_at) / RFU RHOB (11743442_s_at) / Fold change /veh RHOB (11743442_s_at) / RFU RGS16 (11720943_a_at) / Fold change /veh RGS16 (11720943_a_at) / RFU RGS16 (11720944_at) / Fold change /veh RGS16 (11720944_at) / RFU, VPS4B / Fold change vs veh, VPS4B / RFU, CREB1 / Fold change vs veh, CREB1 / RFU, DNAJC13 / Fold change vs veh, DNAJC13 / RFU, GNAQ / Fold change vs veh, GNAQ / RFU, CDK5R1 / Fold change vs veh, CDK5R1 / RFU, ZRANB3 / Fold change vs veh, ZRANB3 / RFU, CUL4A / Fold change vs veh, CUL4A / RFU, CCNY / Fold change vs veh, CCNY / RFU, UFL1 / Fold change vs veh, UFL1 / RFU, COG3 / Fold change vs veh, COG3 / RFU, DIAPH2 / Fold change vs veh, DIAPH2 / RFU, SKA2 / Fold change vs veh, SKA2 / RFU, AFF3 / Fold change vs veh, AFF3 / RFU, LMF1 / Fold change vs veh, LMF1 / RFU, IPO11 / Fold change vs veh, IPO11 / RFU, DFFB / Fold change vs veh, DFFB / RFU, FOXP1 / Fold change vs veh, FOXP1 / RFU, CARD8 / Fold change vs veh, CARD8 / RFU, STRN3 / Fold change vs veh, STRN3 / RFU, ADK / Fold change vs veh, ADK / RFU, RASSF2 / Fold change vs veh, RASSF2 / RFU, WIPF1 / Fold change vs veh, WIPF1 / RFU, LARP1B / Fold change vs veh, LARP1B / RFU, RASA1 / Fold change vs veh, RASA1 / RFU, RB1 / Fold change vs veh, RB1 / RFU, PPFIA1 / Fold change vs veh, PPFIA1 / RFU, MAT2A / Fold change vs veh, MAT2A / RFU, CCT5 / Fold change vs veh, CCT5 / RFU, WDR92 / Fold change vs veh, WDR92 / RFU, CUX1 / Fold change vs veh, CUX1 / RFU, TTC7A / Fold change vs veh, TTC7A / RFU, TMEM135 / Fold change vs veh, TMEM135 / RFU, DEPTOR / Fold change vs veh, DEPTOR / RFU, CPM / Fold change vs veh, CPM / RFU, DNAJB6 / Fold change vs veh, DNAJB6 / RFU, CACNA2D3 / Fold change vs veh, CACNA2D3 / RFU, DTX4 / Fold change vs veh, DTX4 / RFU, TFCP2 / Fold change vs veh, TFCP2 / RFU, GMCL1 /// GMCL1P1 / Fold change vs veh, GMCL1 /// GMCL1P1 / RFU, AEBP2 / Fold change vs veh, AEBP2 / RFU, SNHG1 /// SNORD22 /// SNORD25 /// SNORD26 /// SNORD27 /// SNORD28 /// SNORD29 /// SNORD31 / Fold change vs veh, SNHG1 /// SNORD22 /// SNORD25 /// SNORD26 /// SNORD27 /// SNORD28 /// SNORD29 /// SNORD31 / Fold change (Aza/veh), C12orf56 (ProbeSet 11735607_a_at) / Fold change (ACY-1035/veh), C12orf56 (ProbeSet 11735607_a_at) / Fold change (Aza/veh), FGFR1OP (ProbeSet 11751329_s_at) / Fold change (ACY-1035/veh), FGFR1OP (ProbeSet 11751329_s_at) / Fold change (Aza/veh), VPS36 (ProbeSet 11739960_a_at) / Fold change (ACY-1035/veh), VPS36 (ProbeSet 11739960_a_at) / RFU SYPL1 (11715823_x_at) / Fold change /veh SYPL1 (11715823_x_at) / RFU IGFBP7 (11715501_s_at) / Fold change /veh IGFBP7 (11715501_s_at) / RFU REEP3 (11722064_at) / Fold change /veh REEP3 (11722064_at) / RFU IGLL1 (11728026_x_at) / Fold change /veh IGLL1 (11728026_x_at): dose or concentration left out as unconfirmed
Conditions: ProbeSet 11720270_a_at; LIST B

## Nc1ncn([C@@H]2O[C@H](CO)[C@@H](O)[C@H]2O)c(=O)n1 [azacitidine]
  RFU, IBTK: 397.77 RFU
